Experimental data as given in patent US8889126B2, “Methods and compositions for treating neuropathies” (Washington University, priority 2004, dated 2014).
“Also recorded” adds a separate entry of the source. Where two headings read alike, the source gives them in different places.

Experiments:
DRG explant neurons = test: in vitro Wallerian degeneration assay: DRG explant cultures, axonal transection by removal of neuronal cell bodies; type: cell-based, mouse; conditions: for effect on NAD-dependent axonal protection (NDAP): neurons cultured in 1 mM NAD, Sirtinol 100 μM, 3AB 20 mM or lentiviral siRNA, assessed 12 to 72 hr after transection; for increase in intact neurites at 48 hours after transection: 1 mM exogenous application; for neurite protection from degeneration: 1 mM in culture media for 24 hours before neurite transection
Procedure: To identify the mechanism of delayed axonal degeneration mediated by the Wld^s protein, we employed an in-vitro Wallerian degeneration model. Primary DRG explant neurons were infected with lentivirus expressing the appropriate proteins, and axons were injured by either removal of the neuronal cell body (transection) or growth in vincristine (toxic).
Mouse DRG explants from E12.5 embryos were cultured in the presence of 1 nM nerve growth factor. Non-neuronal cells were removed from the cultures by adding 5-fluorouracil to the culture medium. Transection of neurites was performed at 10-20 DIV using an 18-gauge needle to remove the neuronal cell bodies. Incubation with β-nicotinamide adenine dinucleotide (Sigma) or Sirtinol (Calbiochem) was performed using conditions indicated in the text or figures.
Lentiviral expression vectors were generated using HEK293T cells as described above. For confirmation of lentivirus-derived protein expression, HEK293T cells were infected with lentivirus and cells were lysed 3 days after infection. These lysates were analyzed by immunoblot to using anti-His tag monoclonal antibody (Qiagen) to detect expression of the respective hexahistidine-tagged proteins. Lentiviral infection of DRG neurons was performed by incubating ˜10^6-10^7 pfu/ml virus with the DRG explant for 24 h beginning 3-7 days prior to axonal transection. The infected neurons were examined under an inverted fluorescent microscope to insure detectable lentivirus-mediated transgene expression in >95% of neurons.
Quantitative analysis of axonal degeneration was performed as previously described (Zhai, et al., Neuron 39:217-25, 2003). Briefly, the cultures were examined using phase contrast microscopy at the indicated times. Axons with a fragmented, non-refractile appearance were designated as “degenerated.” At each time point, at least 200 singly distinguishable axons were blindly scored from several randomly taken images of each culture. Each condition was tested in triplicate explants in each experiment. Results were obtained from 2-4 independent experiments for each condition. Statistical analysis was performed by Student's T test. For calculations of neurite-covered area, digitally captured images from quadruplicate samples of two independent experiments were analyzed using analysis 3.1 software (Soft Imaging System, Lakewood, Colo.).
Cell culture, in vitro axotomy, and quantification of axonal degeneration. Mouse DRG explants from E12.5 embryos were cultured in the DMEM containing 10% FCS and 1 nM nerve growth factor. Non-neuronal cells were removed from the cultures by adding 5-fluorouracil to the culture media. Transection of neurites was performed at 14-21 DIV using an 18-gauge needle to remove the neuronal cell bodies. Lentiviral expression vectors were generated. Lentiviral infection was performed 3-7 days prior to axonal transection for 24 hr. Quantitative analysis of neurite degeneration was performed.

[1] = tested on: optic nerve (retinal ganglion cell axons); test: optic nerve transection after intravitreal injection of NAD biosynthetic substrates, neurofilament immunoreactivity by Western blotting; type: in vivo, rat; conditions: 24 hours before transection, 4 days after transection
Procedure: Administration of NAD biosynthetic substrates and optic Nerve transection. Nam, NMN, NmR, or NAD was dissolved in PBS at the concentration of 100 mM or 1 M. Each of 5 μl solution was injected into left intravitreal component under the anesthesia at a rate of […]. The left optic nerve was transected at 24 hours after intravitreal injection and optic nerve was recovered at indicated time. Optic nerve tissue was homogenized in 100 μl of a buffer containing 100 mM tris-HCl (pH 6.8), 1 SDS, and 1 mM DTT. Fifty μg of protein for each sample was analyzed by the Western blotting using anti-neurofilament antibody 2H3 (Developmental Studies Hybridoma Center) and peroxidase-conjugated secondary antibody (Jackson ImmunoResearch). The degeneration rate was calculated from the ratio of the neurofilament immunoreactivity of transected vs. contralateral nerves.
Transection of optic nerve is an in vivo model which can be used to investigate mechanisms leading to Wallerian degeneration and following retinal ganglion cell (RGC) death observed in human diseases such as glaucoma. In the C57BL/Wlds mouse strain, optic nerve degeneration during Wallerian degeneration after axotomy is dramatically slowed. In addition, intravitreal injection is used for screening of compounds that protect RGC axon from degeneration in vivo and thus we can asses the axon protective effect of each NAD biosynthetic substrates in vivo by intraocular injection of compounds including NAD, NMN, NmR, and Nam. […] We initially injected 5 μl of 100 mM or 1 M NAD solution into left intravitreal compartment. After 24 hours incubation, left optic nerve was transected and control (right) and axotomized (left) optic nerve were collected at 3, 4, and 5 days after transection. Neurofilament immunoreactivity from the axotomized optic nerve was measured and normalized against the value obtained from the right side of the optic nerve.
FIG. 9 illustrates optic nerve transection after intravitreal injection of NAD biosynthetic substrates. In these experiments, NAD biosynthetic substrate NAD, NMN, NmR, or Nam was injected into the intravitreal compartment of a left rat eye and allowed to incorporate in retinal ganglion cells for 24 hours. The left optic nerve was then transected by eye enucleation. The right and left optic nerves were collected at 4 days after transection and analyzed by Western blotting. Optic nerves transected from mice without any treatment prior to axotomy served as negative controls. FIG. 9 presents quantitative analysis data, displaying percentage of remaining neurofilament immunoreactivity from transected optic nerve relative to non-transected controls. Data is presented as percent remaining immunoreactivity±S.D.

Nrk2 = test: NAD synthesis enzyme mRNA levels (qRT-PCR) in cultured DRG neurons treated with rotenone; type: cell-based, rat; conditions: 0.1 μM and 1 μM rotenone, RNA collected at 24 hours
Procedure: Real-time quantitative reverse transcription-PCR analysis. All the surgical procedures were performed according to National Institute of Health guidelines for care and use of laboratory animals at Washington University. For the expression analysis following nerve injury, the sciatic nerves of a C57BL/6 mouse was transected and L4 to L5. DRGs were collected at indicated time points and pooled to extract RNA. […] Total RNAs from pooled tissue sources or DRG explant cultures were prepared. First-strand cDNA templates were prepared from 1 μg of each RNA using standard methods. Two independent cDNA syntheses were performed for each RNA sample. Quantitative reverse transcription (RT)-PCR was performed by monitoring in real-time the increase in fluorescence of the SYBR-GREEN dye on a TaqMan 7700 Sequence Detection System (Applied Biosystems).
To investigate the expression of mammalian NAD biosynthetic enzymes in the nervous system, we performed quantitative RT-PCR using RNA from mouse brain, retina, spinal code, and DRG at age of E14, P0, P7, P14 and P21. […] We also analyzed expression of NAD synthetic enzymes during the axonal degeneration caused by neurotoxin in cultured rat DRG neuron. […] FIG. 6B illustrates neurite degeneration introduced by incubation DRG in 1 or 0.1 μM rotenone for indicated time and NAD synthesis enzyme mRNA levels were determined by qRT-PCR as described in the text.

## NC(=O)c1cccc(N)c1 [3AB, 3-aminobenzamide, reference compound]
DRG explant neurons
  effect on NAD-dependent axonal protection (NDAP): had no effect on NDAP

## NC(=O)c1ccc[n+]([C@@H]2O[C@H](COP(=O)([O-])OP(=O)(O)OC[C@H]3O[C@@H](n4cnc5c(N)ncnc54)[C@H](O)[C@@H]3O)[C@@H](O)[C@H]2O)c1 [NAD, β-nicotinamide adenine dinucleotide]
[1]; 5 μl of 100 mM intravitreal
  neurofilament immunoreactivity of axotomized optic nerve, of non-axotomized optic nerve: 78±22%
[1]; 5 μl of 1 M intravitreal
  neurofilament immunoreactivity of axotomized optic nerve, of non-axotomized optic nerve: 77±27%

## NC(=O)c1ccc[n+]([C@@H]2O[C@H](COP(=O)([O-])O)[C@@H](O)[C@H]2O)c1 [NMN, nicotinamide mononucleotide]
DRG explant neurons
  protection against axonal degeneration (summary statement of the in vitro study): have axon saving activity
  increase in intact neurites at 48 hours after transection: comparable increase in intact neurites
  neurite protection from degeneration: successfully saved neurites from degeneration; also recorded: enough to protect axon from degeneration
DRG explant neurons; 1 mM for 24 hours before transection
  neurite protection relative to exogenously applied NAD (quantitative analysis): neurite protection to an extent similar to that achieved by exogenously applied NAD
DRG explant neurons; listed as nicotinamide mononucleotide
  protection against axonal degeneration (summary statement of the in vitro study): protected against axonal degeneration to a similar extent as did NAD
[1]; 5 μl of 100 mM intravitreal
  neurofilament immunoreactivity of axotomized optic nerve, of non-axotomized optic nerve: 60±25%

## O=C(O)c1cccnc1 [Na, nicotinic acid]
DRG explant neurons
  protection against axonal degeneration (summary statement of the in vitro study): did not
  neurite protection from degeneration: failed to save neurites

## Nc1ncnc2c1ncn2[C@@H]1O[C@H](COP(=O)(O)OP(=O)(O)OC[C@H]2O[C@@H]([n+]3cccc(C(=O)O)c3)[C@H](O)[C@@H]2O)[C@@H](O)[C@H]1O [NaAD, nicotinic acid adenine dinucleotide]
DRG explant neurons
  increase in intact neurites at 48 hours after transection: less increase in intact neurites at 48 hours compared with NAD
  neurite protection from degeneration: slight protection

## O=C(O)c1ccc[n+]([C@@H]2O[C@H](COP(=O)(O)O)[C@@H](O)[C@H]2O)c1 [NaMN, nicotinate mononucleotide]
DRG explant neurons
  protection against axonal degeneration (summary statement of the in vitro study): protected against axonal degeneration to a similar extent as did NAD
  increase in intact neurites at 48 hours after transection: comparable increase in intact neurites
  neurite protection from degeneration: saved neurites as well as NAD

## NC(=O)c1cccnc1 [Nam, nicotinamide]
DRG explant neurons
  protection against axonal degeneration (summary statement of the in vitro study): does not
  neurite protection from degeneration: had no effect
DRG explant neurons; listed as nicotinamide
  protection against axonal degeneration (summary statement of the in vitro study): did not
[1]; 5 μl of 100 mM intravitreal
  neurofilament immunoreactivity of axotomized optic nerve, of non-axotomized optic nerve: did not show any difference from the control animals

## NC(=O)c1ccc[n+]([C@@H]2O[C@H](CO)[C@@H](O)[C@H]2O)c1 [NmR, nicotinamide riboside]
DRG explant neurons
  protection against axonal degeneration (summary statement of the in vitro study): have axon saving activity
  increase in intact neurites at 48 hours after transection: comparable increase in intact neurites
  neurite protection from degeneration: saved neurites as well as NAD; also recorded: enough to protect axon from degeneration
DRG explant neurons; listed as nicotinamide riboside
  protection against axonal degeneration (summary statement of the in vitro study): protected against axonal degeneration to a similar extent as did NAD
[1]; 5 μl of 100 mM intravitreal
  neurofilament immunoreactivity of axotomized optic nerve, of non-axotomized optic nerve: 72±19%

## CC(NC(=O)c1ccccc1/N=C/c1c(O)ccc2ccccc12)c1ccccc1 (stereo not shown) [Sirtinol, reference compound]
DRG explant neurons
  effect on NAD-dependent axonal protection (NDAP): effectively blocked NDAP

## Oc1ccc(C=Cc2cc(O)cc(O)c2)cc1 [resveratrol, reference compound]
DRG explant neurons; 10~100 μM, treated prior to axotomy
  axonal degradation after axotomy: decrease in axonal degradation that was comparable to that obtained using NAD

## C=C(C)[C@H]1Cc2c(ccc3c2O[C@@H]2COc4cc(OC)c(OC)cc4[C@@H]2C3=O)O1 [rotenone]
Nrk2
  expression of Nrk2 (mRNA): more than 6 folds
